Reference: article PMC6567057, “Pharmacokinetic, metabolic stability, plasma protein binding and CYP450s inhibition/induction assessment studies of N-(2-pyridylmethyl)-2-hydroxiymethyl-1-pyrrolidinyl-4-(3-chloro-4-methoxy-benzylamino)-5-pyrimidine-carboxamide as potential type 5 phosphodiesterase inhibitors” (Animal Cells and Systems, 2019)
Like-named read-outs stand apart in the source and are kept apart here.

Columns and labels:
[1] = Plasma protein binding by equilibrium dialysis (dog); format: in vitro ADME, Beagle dog; details: beagle
Description: (§1) The phosphate buffer (100 mM) and sodium hydroxide solution (1.0 M) were prepared in deionized water. […] PPB was determined by equilibrium dialysis method. An aliquot (150 μL) of NHPPC spiked plasma and phosphate buffer (pH 7.4) was added into the donor side and the receiver side of each designated well. The plate was covered with adhesive sealing film to prevent evaporation and placed in a water-bath shaker kept at 37°C for 6 h with a rate of 50 rpm. […] At the end of 6 h, aliquots were taken from each side of each well (n = 3) and kept in a −20°C freezer prior to analysis. The stability, device recovery and PPB were calculated using the following equations: Remaining at 6 h (%)=C6h/C0h×100%, Device recovery (%)=CDonor+CReceiver/C6h×100%, PPB (%)=CDonor−CReceiver/CDonor×100%.

dog plasma proteins = assay: as above; format: in vitro ADME, Beagle dog; details: dog plasma, mean of 0.2 and 1 µM
Description: as §1

[2] = In vitro metabolic stability in dog liver microsomes; format: in vitro ADME; details: for remaining at 1 h, 1 µM: liver microsomes, pH 7.4, dog liver microsomes, 60 min, read-out: percent remaining
Description: The phosphate buffer (pH 7.4, 100 mM) and (300 mM) were prepared in deionized water. NADP and IA were dissolved in phosphate buffer and MgCl2 solution and then added 20 μL IDH (18 units/mg protein) and mixed. NHPPC (1 mM) and positive control drug were prepared by dilution using DMSO and then the NHPPC and positive control drug working solution (50 μM) were obtained by dilution using methanol: H2O (1:1, v/v) mixture. Pooled human, rat and dog liver microsomes were added to phosphate buffer pH7.4 to a concentration 20 mg/mL. NHPPC was incubated with liver microsomes. The incubation solution of the final reaction conditions contained 50 mM potassium phosphate buffer (pH 7.4), 0.5 mg protein/mL microsomes, 3 mM MgCl2, 2 mM NADPH and 1 μM NHPPC or positive control drug in a final volume of 100 μL. In sample and positive control groups, NADPH was added into the incubation solutions. In the negative control group, water (the replacement of NADPH) was added into the incubation solutions. Samples were incubated aerobically in a shaking water bath at 37°C and the reaction was terminated by adding 300 μL of ice cold acetonitrile (contain 100 ng/mL IS) at different interval 0, 5, 10, 20, 30 and 60 min. While positive control and negative control were incubated aerobically in a shaking water bath at 37°C for 0 and 60 min, respectively. NHPPC and control concentrations were determined by LC-MS/MS at each time point (n = 3). Calculation of t1/2 and CLint was performed by using following equations, where K is the elimination rate constant (min^−1) and QH is hepatic blood flow (mL/min/kg). t1/2=0.693/KCLint,in vitro=VD×KVD=Volume of reaction mixture(mL)/mg of protein per reation.
Hepatic intrinsic clearance was estimated by using the scaling factors and calculated by using the following equation (Lave et al. [1997]). CLint,in vivo=CLint×mg microsomal protein per liver×g liver per kg body weight, Cint,H=CLint,in vivo×QH/CLint,in vivo+QH,EH=CLint,H/QH.

CYP1A2 = assay: CYP induction in human primary hepatocytes; format: in vitro ADME; details: CYP1A2, human primary hepatocytes of three batches, 0.10, 1.00 or 10.0 μM, 72 h
Description: (§2) The hepatocytes were seeded on a collagenated 48-well plate for 24 h in an incubator at 37°C (moisturized, with 5% CO2). The hepatocytes were then incubated with the test article thereafter. The stock solutions of omeprazole (100 mM), rifampin (20.0 mM), testosterone (200 mM), phenacetin (100 mM) and NHPPC (50.0 mM) were prepared in DMSO, and were diluted using the cell culture medium. The DMSO content in the final solutions was 0.10%, the medium containing 0.10% DMSO was used as the blank control. The cells were co-incubated with the positive control inducers or NHPPC for 72 h and during the incubation the medium was changed every day. After the incubation, the medium was discarded and replaced with 200 μL phenol red-free culture medium containing 100 μM phenacetin (CYP1A2 probe substrate) or 200 μM testosterone (CYP3A4 probe substrate). After the incubation in the presence of the probe substrates at 37°C for 1 h, the supernatants were collected and stored at −80°C until analysis. All incubations were also conducted in triplicate. The generated metabolites of the CYP1A2 and CYP3A4 probe substrates were analyzed by LC/MS/MS methods. The induction effects of the positive control inducers and NHPPC were assessed by the amount of metabolites formed in the induced and uninduced hepatocytes. The percent induction of positive control was calculated using the following equation. […]

CYP3A4 = assay: CYP induction in human primary hepatocytes; format: in vitro ADME; details: CYP3A4, human primary hepatocytes of three batches, 0.10, 1.00 or 10.0 μM, 72 h
Description: as §2

COc1ccc(CNc2nc(N3CCC[C@H]3CO)ncc2C(=O)NCc2ccccn2)cc1Cl [NHPPC, N-(2-pyridylmethyl)-2-hydroxiymethyl-1-pyrrolidinyl-4-(3-chloro-4-methoxy-benzylamino)-5-pyrimidine-carboxamide]
fraction unbound at 6 h, 0.2 µM ([1]; dog, plasma, pH 7.4, dog plasma, 0.2 µM, equilibrium dialysis 6 h, read-out: Mean PPB % (converted)): 0.008
fraction unbound at 6 h, 1 µM ([1]; dog, plasma, pH 7.4, dog plasma, 1 µM, equilibrium dialysis 6 h, read-out: Mean PPB %): 0.001 ± 3.8e-06
recovery at 6 h, 0.2 μM ([1]; pH 7.4, dog plasma, equilibrium dialysis, n = 3, read-out: Mean device recovery %): 95.7 ± 0.3%
Mean PPB % (dog plasma proteins): 99.6 ± 0.26%
remaining at 1 h, 1 µM ([2]; dog, in the presence of NADPH, 1 μM): 0.8%
remaining at 1 h, 1 µM ([2]; dog, without NADPH regenerating system): 98.4%
CLH ([2]; dog, scaled from liver microsomes): 25.3 mL/min/kg
half-life at 1 µM ([2]; liver microsomes (pooled), pH 7.4, dog liver microsomes): 8.2 min
microsomal CLint at 1 µM ([2]; liver microsomes (pooled), pH 7.4, dog liver microsomes, read-out: CLint, ivtro): 120 µL/min/mg
k el at 1 µM ([2]; pH 7.4, dog liver microsomes, read-out: Ke (converted)): 0.0014 s⁻¹
percent induction of positive control (CYP1A2): less than 40%
percent induction of positive control (CYP3A4): less than 40%
